Results taken from US20200325518A1, “Systems and Methods for Metabolic Assessment Utilizing 1-Methoxy-PMS Field” (priority 2019, published 2020).

Test system: E. coli
Test: CLSI overnight reference method MIC of antimicrobials against E. coli strains
Type: cell-based
Details: for MIC (CLSI Ref): unit assumed
[1] = E. coli strain Clinical Sample 1
[2] = E. coli strain Clinical Sample 2
[3] = E. coli strain Clinical Sample 4
[4] = E. coli strain Clinical Sample 5
[5] = E. coli strain Clinical Sample 6
[6] = E. coli strain Clinical Sample 7
[7] = E. coli strain Clinical Sample 8
[8] = E. coli strain Clinical Sample 9
[9] = E. coli strain Clinical Sample 10
[10] = E. coli strain Clinical Sample 11
[11] = E. coli strain Clinical Sample 12
[12] = E. coli strain Clinical Sample 13

Compound	MIC (CLSI Ref) (E. coli strain BEI 4.097)	MIC (CLSI Ref) (E. coli strain CDC Carba36)	MIC (CLSI Ref) [1]	CLSI breakpoint interpretation [2]	MIC (CLSI Ref) [2]	MIC (CLSI Ref) [3]	MIC (CLSI Ref) [4]	MIC (CLSI Ref) [5]	MIC (CLSI Ref) [6]	MIC (CLSI Ref) [7]	MIC (CLSI Ref) [8]	MIC (CLSI Ref) [9]	MIC (CLSI Ref) [10]	MIC (CLSI Ref) [11]	MIC (CLSI Ref) [12]
CO/N=C(\C(=O)N[C@@H]1C(=O)N2C(C(=O)O)=C(CSc3nc(=O)c(=O)[nH]n3C)CS[C@H]12)c1csc(N)n1 [CRO, Ceftriaxone]	< 0.12 µg/mL	1 µg/mL	< 0.12 µg/mL	I	2 µg/mL	< 0.12 µg/mL	< 0.12 µg/mL	< 0.12 µg/mL	< 0.12 µg/mL	64 µg/mL	> 64 µg/mL	< 0.12 µg/mL	< 0.12 µg/mL	< 0.12 µg/mL	< 0.12 µg/mL
C[C@@H](O)[C@H]1C(=O)N2C(C(=O)O)=C(SCCN=CN)C[C@H]12 [IPM, Imipinem]	< 0.12 µg/mL	< 0.12 µg/mL	< 0.12 µg/mL		< 0.12 µg/mL	0.25 µg/mL	< 0.12 µg/mL	< 0.12 µg/mL	< 0.12 µg/mL	0.5 µg/mL	< 0.12 µg/mL	< 0.12 µg/mL	0.25 µg/mL	< 0.12 µg/mL	< 0.12 µg/mL
Penicillin	16 µg/mL	> 16 µg/mL	> 16 µg/mL		> 16 µg/mL	> 16 µg/mL	> 16 µg/mL	16 µg/mL	> 16 µg/mL	> 16 µg/mL	> 16 µg/mL	> 16 µg/mL	> 16 µg/mL	> 16 µg/mL	16 µg/mL
Trimethoprim-Sulfamethoxazole [SXT]	< 0.5 µg/mL	< 0.5 µg/mL	< 0.5 µg/mL	R	4 µg/mL	> 32 µg/mL	> 32 µg/mL	2 µg/mL	> 32 µg/mL	< 0.5 µg/mL	> 32 µg/mL	> 32 µg/mL	< 0.5 µg/mL	< 0.5 µg/mL	< 0.5 µg/mL
C[C@H]1[C@H](NC(=O)/C(=N\OC(C)(C)C(=O)O)c2csc(N)n2)C(=O)N1S(=O)(=O)O [ATM, Aztreonam]	< 0.25 µg/mL	8 µg/mL	< 0.25 µg/mL		0.5 µg/mL	< 0.25 µg/mL	< 0.25 µg/mL	< 0.25 µg/mL	< 0.25 µg/mL	64 µg/mL	32 µg/mL	< 0.25 µg/mL	< 0.25 µg/mL	< 0.25 µg/mL	< 0.25 µg/mL
NC[C@H]1O[C@H](O[C@H]2[C@H](O)[C@@H](O[C@H]3O[C@H](CO)[C@@H](O)[C@H](N)[C@H]3O)[C@H](N)C[C@@H]2N)[C@H](N)C[C@@H]1O [TOB, Tobramycin]	1 µg/mL	1 µg/mL	2 µg/mL		1 µg/mL	1 µg/mL	1 µg/mL	1 µg/mL	1 µg/mL	2 µg/mL	4 µg/mL	16 µg/mL	1 µg/mL	1 µg/mL	1 µg/mL
Ampicillin/sulbactam [SAM]	8 µg/mL	> 32 µg/mL	4 µg/mL	I	16 µg/mL	16 µg/mL	8 µg/mL	2 µg/mL	16 µg/mL	64 µg/mL	32 µg/mL	16 µg/mL	4 µg/mL	2 µg/mL	> 32 µg/mL
CC1(C)S[C@@H]2[C@H](NC(=O)[C@H](N)c3ccccc3)C(=O)N2[C@H]1C(=O)O [AMP, Ampicillin]	4 µg/mL	> 32 µg/mL	4 µg/mL		> 32 µg/mL	> 32 µg/mL	> 32 µg/mL	4 µg/mL	> 32 µg/mL	> 32 µg/mL	> 32 µg/mL	> 32 µg/mL	4 µg/mL	4 µg/mL	> 32 µg/mL
